Experimental findings from paper PMC7753999, “Molecular docking‐assisted screening reveals tannic acid as a natural protein disulphide isomerase inhibitor with antiplatelet and antithrombotic activities” (Journal of Cellular and Molecular Medicine, 2020) are described below.

One assay deals with T1, ERp57 (Homo sapiens, UniProt P30101).
T1 construct: gene PDIA3
T1 sequence (P30101 25-505): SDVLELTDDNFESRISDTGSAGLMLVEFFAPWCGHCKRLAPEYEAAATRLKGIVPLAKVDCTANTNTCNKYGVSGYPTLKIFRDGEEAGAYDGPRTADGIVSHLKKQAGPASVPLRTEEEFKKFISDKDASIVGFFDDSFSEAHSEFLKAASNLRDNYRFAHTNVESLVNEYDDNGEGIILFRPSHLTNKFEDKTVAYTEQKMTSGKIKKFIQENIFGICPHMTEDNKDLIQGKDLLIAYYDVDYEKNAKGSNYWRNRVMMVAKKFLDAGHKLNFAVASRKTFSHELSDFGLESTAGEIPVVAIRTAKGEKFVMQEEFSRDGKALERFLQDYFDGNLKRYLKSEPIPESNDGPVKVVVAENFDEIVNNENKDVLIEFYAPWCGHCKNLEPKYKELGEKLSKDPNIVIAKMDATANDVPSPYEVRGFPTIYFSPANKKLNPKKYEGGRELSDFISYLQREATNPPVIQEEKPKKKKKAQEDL
The experiment in a line: Di-E-GSSG fluorescence reductase assay, recombinant enzyme […]. In kind it is biochemical.

The next assay concerns the target T2, ERp72 (Homo sapiens, UniProt P13667).
T2 construct: gene PDIA4
T2 sequence (P13667 21-645): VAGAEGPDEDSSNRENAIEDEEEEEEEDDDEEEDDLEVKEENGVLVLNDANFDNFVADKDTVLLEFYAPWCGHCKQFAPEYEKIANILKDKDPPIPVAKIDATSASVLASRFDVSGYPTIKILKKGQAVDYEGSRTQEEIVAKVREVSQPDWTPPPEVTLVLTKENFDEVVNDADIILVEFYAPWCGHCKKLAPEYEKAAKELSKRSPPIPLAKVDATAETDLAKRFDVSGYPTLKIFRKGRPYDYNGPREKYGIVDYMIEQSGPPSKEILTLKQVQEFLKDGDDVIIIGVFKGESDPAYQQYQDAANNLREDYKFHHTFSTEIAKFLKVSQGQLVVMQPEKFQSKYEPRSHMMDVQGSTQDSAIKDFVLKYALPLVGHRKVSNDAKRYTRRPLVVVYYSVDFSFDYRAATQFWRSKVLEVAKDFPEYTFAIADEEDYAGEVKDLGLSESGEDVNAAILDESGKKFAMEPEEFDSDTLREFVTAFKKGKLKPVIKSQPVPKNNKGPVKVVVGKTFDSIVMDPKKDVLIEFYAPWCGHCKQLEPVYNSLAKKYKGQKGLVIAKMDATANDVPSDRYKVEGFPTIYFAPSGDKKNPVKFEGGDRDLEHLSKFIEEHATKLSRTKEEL
Described as above. Type of assay: biochemical.

The target of assay [1] is T3, Protein disulphide isomerase (PDI) (Homo sapiens, UniProt P07237).
T3 construct: gene P4HB
T3 sequence (P07237 18-508): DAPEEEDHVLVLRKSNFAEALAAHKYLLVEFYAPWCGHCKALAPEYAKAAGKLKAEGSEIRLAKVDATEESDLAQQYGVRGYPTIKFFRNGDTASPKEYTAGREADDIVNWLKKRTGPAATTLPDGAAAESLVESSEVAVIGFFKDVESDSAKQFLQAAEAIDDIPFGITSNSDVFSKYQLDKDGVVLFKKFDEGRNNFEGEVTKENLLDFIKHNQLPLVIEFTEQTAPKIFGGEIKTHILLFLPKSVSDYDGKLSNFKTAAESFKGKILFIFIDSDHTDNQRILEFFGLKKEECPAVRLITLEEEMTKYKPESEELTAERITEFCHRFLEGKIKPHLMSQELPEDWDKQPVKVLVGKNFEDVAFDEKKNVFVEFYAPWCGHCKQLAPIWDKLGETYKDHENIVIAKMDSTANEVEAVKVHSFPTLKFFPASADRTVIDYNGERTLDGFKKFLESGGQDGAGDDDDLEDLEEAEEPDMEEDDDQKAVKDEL
Put plainly: SPR with immobilized recombinant human PDI; also inhibits in Di-E-GSSG reductase and insulin reduction assays. Type of assay: binding.

For orientation: Kd means a measure of binding affinity in units of concentration.

Molecules are shown by their SMILES.

Regarding `O=C(OC[C@H]1O[C@@H](OC(=O)c2cc(O)c(O)c(OC(=O)c3cc(O)c(O)c(O)c3)c2)[C@H](OC(=O)c2cc(O)c(O)c(OC(=O)c3cc(O)c(O)c(O)c3)c2)[C@@H](OC(=O)c2cc(O)c(O)c(OC(=O)c3cc(O)c(O)c(O)c3)c2)[C@@H]1OC(=O)c1cc(O)c(O)c(OC(=O)c2cc(O)c(O)c(O)c2)c1)c1cc(O)c(O)c(OC(=O)c2cc(O)c(O)c(O)c2)c1` [TA, Tannic acid], the “Di-E-GSSG fluorescence reductase assay, recombinant enzyme 20 nmol/L” value at ERp57 was “TA impaired the reductase activity of other platelet PDI family members ERP57 and ERP72”; at ERp72, “TA impaired the reductase activity of other platelet PDI family members ERP57 and ERP72”. Moreover, in assay [1], the Kd is less than 1.68 nM.
